The values that follow come from EP1051405B1, “NOVEL DIHYDROXYHEXANOIC ACID DERIVATIVES” (Pfizer Products Inc., priority 1998, dated 1999).

A short description of this data set: physchem. The note with it: phosphate buffer, pH 7, aqueous buffer.

Description: Solubility of the compounds is determined at four fixed concentrations and is expressed as µg/mL. Solubility or insolubility is measured in phosphate buffer using a turbidometric plate reader by automated micro addition of a compound predissolved in DMSO. Solubilities at 50, 100, 200 and 250 or 100, 200, 400 and 500 micrograms/mL can be determined by predissolving 1 mg of compound in sufficient DMSO to reach an initial concentration of 20 or 40 µg/ µL.
A spectramax 250 UV transparent 96 well microplate is filled with 200 µL of Stock pH 7 phosphate buffer solution. A series of 25 absorption readings in a 5 by 5 matrix at a wavelength of 492nm are taken for each well in the microplate containing pH buffer alone. […]
After compound addition, a second scan consisting of a series of 25 absorption readings in a 5 by 5 matrix are taken for each well in the microplate at the same wavelength as the first blank scan. The raw compound OD values for each reading in the 5 by 5 matrix are subtracted from the corresponding "blank" values in the 5 by 5 matrix to provide the raw solubility OD data.
Data obtained from the Tecan SLT Spectra Image Reader is then analyzed using a Visual Basic computer program (or can be calculated manually according to methods well known to those of ordinary skill in the art), so as to provide solubility data for each compound.

With `CC(C)(O)CC[C@H](C[C@H](O)[C@H](Cc1cccc(Cl)c1)NC(=O)c1cnc2ccccc2n1)C(N)=O` [Example 2, Quinoxaline-2-carboxylic acid [4(R)-carbamoyl-1(S)-(3-chloro-benzyl)-2(S),7-dihydroxy-7-methyl-octyl]-amide], the solubility was > 100 µg/mL. Regarding `CC(C)(F)CC[C@H](C[C@H](O)[C@H](Cc1ccccc1)NC(=O)c1cnc(Cl)c(Cl)c1)C(N)=O` [Example 247], the solubility is < 5 µg/mL.
